Results as given in patent US20240290636A1, “SUBSTRATE TREATING METHOD, SUBSTRATE TREATING APPARATUS, AND TREATMENT LIQUID” (SCREEN Holdings Co., Ltd., priority 2021, published 2024).

Assays:
[1] = Vapor pressure of the sublimable substance; conditions: absolute pressure
Description: The sublimable substance has a vapor pressure of 0.1 Pa or more and 1.0 Pa or less at normal temperatures. Here, the normal temperatures include a room temperature. The normal temperatures fall within a temperature range of 5° C. or more and 35° C. or less, for example. The normal temperatures fall within a temperature range of 10° C. or more and 30° C. or less, for example. In this specification, the value of vapor pressure is indicated as absolute pressure relative to absolute vacuum.

[2] = Source text: The ability of the solvent to dissolve the sublimable substance is indicated, for example, by the solubility of the sublimable substance in the solvent. Hereinafter, the solubility of the sublimable substance in the solvent is appropriately referred to as solubility Rm. The solubility Rm is a limit amount of sublimable substance that is soluble in a certain amount of solvent. As the solubility Rm increases, the ability of the solvent to dissolve the sublimable substance increases. Therefore, the solubility Rm is preferably high.
In general, the solubility Rm varies with temperature. The treatment liquid is used at normal temperatures. Therefore, the solubility Rm is preferably high at normal temperatures. The solubility Rm is preferably 150 vol % or more at normal temperatures.
For example, when the maximum volume of the sublimable substance soluble in the solvent of volume Q2c is Q1m, the solubility Rm is a ratio of the maximum volume Q1m to the volume Q2c. Specifically, the solubility Rm is defined by the following formula.

Row | SMILES | vapor pressure at 25° C. [1] | solubility Rm at 25° C. [2] | solubility Rm at normal temperatures [2]
1 | ON=C1CCCCC1 [cyclohexanone oxime] | 1.45 Pa |  | 
2 | CC(=NO)C(C)(C)C [pinacolone oxime] | 35.3 Pa |  | 
3 | CC(=NO)c1ccccc1 [acetophenone oxime] | 0.27 Pa | 186 vol % | ≥ 150 vol %
